Data published in patent US20160122320A1, “USEFUL COMBINATIONS OF MONOBACTAM ANTIBIOTICS WITH BETA-LACTAMASE INHIBITORS” (Basilea Pharmaceutica AG, priority 2005, published 2016).
One block for each molecule: values may come before it.

Assays:
Assay in all cases: MIC, NCCLS broth microdilution
Format in all cases: cell-based
[1] = tested on: Pseudomonas aeruginosa MK1184
Acinetobacter sp. J2 = conditions: Acinetobacter baumannii J2
[2] = tested on: Pseudomonas aeruginosa 1973E; conditions: for MIC of antibiotic: antibiotic alone, no inhibitor
Procedure, shortened: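 Broth microdilution following NCCLS M7-A5, with final DMSO ≤1%. Plates were incubated overnight at 30° C. or 37° C. and growth was read by eye; MIC is the lowest concentration giving complete inhibition of visible growth. In combination tests the formula I compound was serially diluted while partner compounds were held at 4 μg/mL each.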

[3] = tested on: Enterobacter aerogenes Zayakosky; conditions: Enterobacter aerogenes Zayakosky; + compound 323 and sulbactam, 4 mg/L each
[4] = tested on: Stenotrophomonas malthophilia 1AC736; conditions: Stenotrophomonas maltophilia 1AC736
[5] = tested on: Enterobacter aerogenes B1
[6] = tested on: Klebsiella pneumoniae CF104
Serratia marcescens S6 = tested on: Serratia marcescens S6
Enterobacter cloacae P99 = tested on: Enterobacter cloacae P99

Compound: C[C@H]1[C@H](NC(=O)/C(=N\OC(C)(C)C(=O)O)c2csc(N)n2)C(=O)N1S(=O)(=O)O [Aztreonam, aztreonam, reference compound]
- MIC of antibiotic at fixed inhibitor concentration of 4 mg/L ([1]; with 102 and sulbactam): 16 µg/mL
- MIC of antibiotic at fixed inhibitor concentration of 4 mg/L (Acinetobacter sp. J2; with 102 and clavulanate): 16 µg/mL
- MIC of antibiotic at fixed inhibitor concentration of 4 mg/L (Acinetobacter sp. J2; with 102 and sulbactam): 4 µg/mL
- MIC of antibiotic [2]: 8 µg/mL
- MIC of antibiotic at fixed inhibitor concentration of 4 mg/L ([2]; with 102 and clavulanate): 8 µg/mL
- MIC of antibiotic at fixed inhibitor concentration of 4 mg/L ([2]; with 102 and sulbactam): 4 µg/mL
- Minimal Inhibitory Concentration of antibiotic at fixed inhibitor concentration of 4 mg/L [3]: 8 mg/L
- MIC of antibiotic at fixed inhibitor concentration of 4 mg/L ([4]; with 102 and clavulanate): 4 µg/mL
- MIC of antibiotic at fixed inhibitor concentration of 4 mg/L ([4]; with 102 and sulbactam): 8 µg/mL
- Minimal Inhibitory Concentration of antibiotic at fixed inhibitor concentration of 4 mg/L ([5]; + compound 206 4 mg/L): 8 mg/L
- Minimal Inhibitory Concentration of antibiotic at fixed inhibitor concentration of 4 mg/L ([5]; + compound 323 and sulbactam, 4 mg/L each): 8 mg/L
- MIC of antibiotic at fixed inhibitor concentration of 4 mg/L ([6]; with 102 and clavulanate): 0.5 µg/mL
- MIC of antibiotic at fixed inhibitor concentration of 4 mg/L ([6]; with 102 and sulbactam): 1 µg/mL
- MIC of antibiotic at fixed inhibitor concentration of 4 mg/L (Serratia marcescens S6; with 102 and clavulanate): 2 µg/mL
- MIC of antibiotic at fixed inhibitor concentration of 4 mg/L (Serratia marcescens S6; with 102 and sulbactam): 2 µg/mL

- MIC of antibiotic ([1]; antibiotic alone, no inhibitor): >32 µg/mL
- MIC of antibiotic at fixed inhibitor concentration of 4 mg/L ([1]; with 102 and clavulanate): 32 µg/mL
- MIC of antibiotic (Acinetobacter sp. J2; antibiotic alone, no inhibitor): >32 µg/mL
- MIC of antibiotic at fixed inhibitor concentration of 4 mg/L (Acinetobacter sp. J2; with 102 and clavulanate): >32 µg/mL
- MIC of antibiotic [2]: >32 µg/mL
- MIC of antibiotic at fixed inhibitor concentration of 4 mg/L ([2]; with 102 and clavulanate): 16 µg/mL
- MIC of antibiotic ([4]; antibiotic alone, no inhibitor): 8 µg/mL
- MIC of antibiotic at fixed inhibitor concentration of 4 mg/L ([4]; with 102 and clavulanate): 1 µg/mL
- MIC of antibiotic ([6]; antibiotic alone, no inhibitor): >32 µg/mL
- MIC of antibiotic at fixed inhibitor concentration of 4 mg/L ([6]; with 102 and clavulanate): 0.5 µg/mL
- MIC of antibiotic (Enterobacter cloacae P99; antibiotic alone, no inhibitor): >32 µg/mL
- MIC of antibiotic at fixed inhibitor concentration of 4 mg/L (Enterobacter cloacae P99; with 102 and clavulanate): >32 µg/mL
- MIC of antibiotic (Serratia marcescens S6; antibiotic alone, no inhibitor): 8 µg/mL
- MIC of antibiotic at fixed inhibitor concentration of 4 mg/L (Serratia marcescens S6; with 102 and clavulanate): 1 µg/mL
Compound: CC1C(NC(=O)C(=NOCc2cc(=O)c(O)cn2O)c2csc(NC=O)n2)C(=O)N1S(=O)(=O)O (centres unmarked) [Compound 28]
